Source: patent publication US10005767B2, “Compositions and methods for inhibition of the JAK pathway” (Rigel Pharmaceuticals, Inc., priority 2009, dated 2018)

What follows are compounds tested on human primary T-cells, IL-2 stimulated proliferation (JAK-1 and JAK-3 dependent; reported as JAK3 activity) (assay: Human primary T-cell proliferation stimulated by IL-2 (Example 3)). Conditions: Homo sapiens, T-cell, tested under conditions described in Example 3 (IL-2 stimulated human primary T-cell proliferation); read-out: ability to inhibit JAK3 activity, IC50 range (Table V).
Type: cell-based
In short: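 Peripheral-blood human T-cells pre-activated via TCR/CD28, IL-2-starved overnight, then cultured 72 h at 37 °C with compound in Yssel's medium containing IL-2 (80 U/mL in cell suspension). Proliferation read as viable-cell ATP by CellTiter-Glo luminescence; reduction versus control taken as JAK pathway inhibition.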
Compound `Cc1cnc(Nc2ccc3c(c2)C(=O)N(C)C/C=C\C3)nc1Nc1ccc2oc(=O)[nH]c2c1` [IV-10, (Z)-2-Methyl-9-[5-methyl-4-(2-oxo-2,3-dihydro-benzooxazol-5-ylamino)-pyrimidin-2-ylamino]-3,6-dihydro-2H-benzo[c]azocin-1-one] has an IC50 of less than 500 nM. Work on `Cc1cnc(Nc2cccc3c2OC(F)(F)O3)nc1Nc1ccc2oc(=O)[nH]c2c1` [IV-11, 5-[2-(2,2-Difluoro-benzo[1,3]dioxol-4-ylamino)-5-methyl-pyrimidin-4-ylamino]-3H-benzooxazol-2-one] yielded an IC50 of less than 500 nM. In the case of `Cc1cnc(Nc2ccc3c(c2)C(NC(C)C)CCCC3)nc1Nc1ccc2oc(=O)[nH]c2c1` (stereo not shown) [IV-12, 5-[2-(9-Isopropylamino-6,7,8,9-tetrahydro-5H-benzocyclohepten-2-ylamino)-5-methyl-pyrimidin-4-ylamino]-3H-benzooxazol-2-one], the IC50 is reported as less than 500 nM. For `CCN(CC)C1CCN(C2CCCCc3ccc(Nc4ncc(C)c(Nc5ccc6oc(=O)[nH]c6c5)n4)cc32)C1` (stereo not shown) [IV-13, 5-{2-[9-(3-Diethylamino-pyrrolidin-1-yl)-6,7,8,9-tetrahydro-5H-benzocyclohepten-2-ylamino]-5-methyl-pyrimidin-4-ylamino}-3H-benzooxazol-2-one], the IC50 was 500 to 5000 nM. In the case of `Cc1cnc(Nc2ccc3c(c2)C(=O)N(C)CCCC3)nc1Nc1ccc2oc(=O)[nH]c2c1` [IV-14, 2-Methyl-9-[5-methyl-4-(2-oxo-2,3-dihydro-benzooxazol-5-ylamino)-pyrimidin-2-ylamino]-3,4,5,6-tetrahydro-2H-benzo[c]azocin-1-one], the IC50 is reported as less than 500 nM. `Cc1cnc(Nc2ccc3c(c2)CCNC3=O)nc1Nc1ccc2oc(=O)[nH]c2c1` [IV-15, 6-[5-Methyl-4-(2-oxo-2,3-dihydro-benzooxazol-5-ylamino)-pyrimidin-2-ylamino]-3,4-dihydro-2H-isoquinolin-1-one] was tested, and the IC50 was less than 500 nM. With `Cc1cnc(Nc2ccc3c(c2)NS(=O)(=O)CO3)nc1Nc1ccc2oc(=O)[nH]c2c1` [IV-16, 5-[2-(2,2-Dioxo-1H-benzo[e][1,3,4]oxathiazin-7-ylamino)-5-methyl-pyrimidin-4-ylamino]-3H-benzooxazol-2-one] the IC50 was less than 500 nM. In the case of `Cc1cnc(Nc2ccc3c(c2)OC(C)(C)O3)nc1Nc1ccc2oc(=O)[nH]c2c1` [IV-17, 5-[2-(2,2-Dimethyl-benzo[1,3]dioxol-5-ylamino)-5-methyl-pyrimidin-4-ylamino]-3H-benzooxazol-2-one], the IC50 is reported as less than 500 nM. `Cc1cnc(Nc2ccc3c(c2)C=CCNC3=O)nc1Nc1ccc2oc(=O)[nH]c2c1` [IV-18, (Z)-5-(5-methyl-2-(1-oxo-2,3-dihydro-1H-benzo[c]azepin-7-ylamino)pyrimidin-4-ylamino)benzo[d]oxazol-2(3H)-one] was tested, and the IC50 was less than 500 nM. For `Cc1cnc(Nc2ccc3c(c2)C=CCN(C)C3=O)nc1Nc1ccc2oc(=O)[nH]c2c1` [IV-19, (Z)-5-(5-methyl-2-(2-methyl-1-oxo-2,3-dihydro-1H-benzo[c]azepin-7-ylamino)pyrimidin-4-ylamino)benzo[d]oxazol-2(3H)-one], the IC50 was less than 500 nM. `Cc1cnc(Nc2ccc3c(c2)CCCN(C)C3=O)nc1Nc1ccc2oc(=O)[nH]c2c1` [IV-21, 5-(5-methyl-2-(2-methyl-1-oxo-2,3,4,5-tetrahydro-1H-benzo[c]azepin-7-ylamino)pyrimidin-4-ylamino)benzo[d]oxazol-2(3H)-one] showed an IC50 of less than 500 nM. Work on `Cc1cnc(Nc2ccc3oc(=O)[nH]c3c2)nc1Nc1ccc2oc(=O)[nH]c2c1` [IV-22, 5,5′-(5-methylpyrimidine-2,4-diyl)bis(azanediyl)dibenzo[d]oxazol-2(3H)-one] yielded an IC50 of less than 500 nM. In the case of `Cc1cnc(Nc2ccc3c(c2)NC(=O)CCC3)nc1Nc1ccc2oc(=O)[nH]c2c1` [IV-23, 5-(5-methyl-2-(2-oxo-2,3,4,5-tetrahydro-1H-benzo[b]azepin-8-ylamino)pyrimidin-4-ylamino)benzo[d]oxazol-2(3H)-one], the IC50 is reported as less than 500 nM. Compound `Cc1cnc(Nc2ccc3c(c2)NC(=O)CC3)nc1Nc1ccc2oc(=O)[nH]c2c1` [IV-24, 5-(5-methyl-2-(2-oxo-1,2,3,4-tetrahydroquinolin-7-ylamino)pyrimidin-4-ylamino)benzo[d]oxazol-2(3H)-one] has an IC50 of less than 500 nM. Compound `Cc1cnc(Nc2ccc3c(c2)NC(=O)CO3)nc1Nc1ccc2oc(=O)[nH]c2c1` [IV-25, 6-(5-methyl-4-(2-oxo-2,3-dihydrobenzo[d]oxazol-5-ylamino)pyrimidin-2-ylamino)-2H-benzo[b][1,4]oxazin-3 (4H)-one] has an IC50 of less than 500 nM. `Cc1cnc(Nc2ccc3c(c2)NC(=O)C3(C)C)nc1Nc1ccc2oc(=O)[nH]c2c1` [IV-26, 5-(2-(3,3-dimethyl-2-oxoindolin-6-ylamino)-5-methylpyrimidin-4-ylamino)benzo[d]oxazol-2(3H)-one] was tested, and the IC50 was less than 500 nM. Work on `Cc1cnc(Nc2ccc3c(c2)CC(=O)N3C)nc1Nc1ccc2oc(=O)[nH]c2c1` [IV-27, 5-(5-methyl-2-(1-methyl-2-oxoindolin-5-ylamino)pyrimidin-4-ylamino)benzo[d]oxazol-2(3H)-one] yielded an IC50 of less than 500 nM. With `Cc1cnc(Nc2ccc3c(c2)[nH]c(=O)n3C)nc1Nc1ccc2oc(=O)[nH]c2c1` [IV-28, 5-(5-methyl-2-(1-methyl-2-oxo-2,3-dihydro-1H-benzo[d]imidazol-5-ylamino)pyrimidin-4-ylamino)benzo[d]oxazol-2(3H)-one] the IC50 was less than 500 nM. Work on `Cc1cnc(Nc2ccc3[nH]c(=O)[nH]c3c2)nc1Nc1ccc2oc(=O)[nH]c2c1` [IV-29, 5-(5-methyl-2-(2-oxo-2,3-dihydro-1H-benzo[d]imidazol-5-ylamino)pyrimidin-4-ylamino)benzo[d]oxazol-2(3H)-one] yielded an IC50 of less than 500 nM. `Cc1cnc(Nc2ccc3c(c2)N(C)C(=O)CCC3)nc1Nc1ccc2oc(=O)[nH]c2c1` [IV-30, 5-(5-methyl-2-(1-methyl-2-oxo-2,3,4,5-tetrahydro-1H-benzo[b]azepin-8-ylamino)pyrimidin-4-ylamino)benzo[d]oxazol-2(3H)-one] was tested, and the IC50 was less than 500 nM. In the case of `Cc1cnc(Nc2ccc3c(c2)CCCC(=O)N3)nc1Nc1ccc2oc(=O)[nH]c2c1` [IV-31, 5-(5-methyl-2-(2-oxo-2,3,4,5-tetrahydro-1H-benzo[b]azepin-7-ylamino)pyrimidin-4-ylamino)benzo[d]oxazol-2(3H)-one], the IC50 is reported as less than 500 nM. For `Cc1cnc(Nc2ccc3c(c2)OCC(=O)N3)nc1Nc1ccc2oc(=O)[nH]c2c1` [IV-32, 7-(5-methyl-4-(2-oxo-2,3-dihydrobenzo[d]oxazol-5-ylamino)pyrimidin-2-ylamino)-2H-benzo[b][1,4]oxazin-3 (4H)-one], the IC50 was less than 500 nM. With `Cc1cnc(Nc2ccc3c(c2)CCC(=O)N3)nc1Nc1ccc2oc(=O)[nH]c2c1` [IV-33, 5-(5-methyl-2-(2-oxo-1,2,3,4-tetrahydroquinolin-6-ylamino)pyrimidin-4-ylamino)benzo[d]oxazol-2(3H)-one] the IC50 was less than 500 nM. `Cc1cnc(Nc2ccc3c(c2)CCCC(=O)N3C)nc1Nc1ccc2oc(=O)[nH]c2c1` [IV-34, 5-(5-methyl-2-(1-methyl-2-oxo-2,3,4,5-tetrahydro-1H-benzo[b]azepin-7-ylamino)pyrimidin-4-ylamino)benzo[d]oxazol-2(3H)-one] gave an IC50 of less than 500 nM.

Same assay, conditions: tested under conditions described in Example 3 (IL-2 stimulated human primary T-cell proliferation); read-out: ability to inhibit JAK3 activity, IC50 range (Table V)
`Cc1cnc(Nc2ccc3c(c2)OCO3)nc1Nc1ccc2oc(=O)[nH]c2c1` [IV-35, 5-methyl-N2-(3,4-methylenedioxy)phenyl-N4-(2-oxo-2,3-dihydro-1,3-benzoxazol-5-yl)-2,4-pyrimidinediamine] gave an IC50 of less than 500 nM.
